# Experimental data published in ChEMBL document CHEMBL1149918, “Novel 1,5-benzodiazepindione gastrin/CCKB antagonists” (Bioorg Med Chem Lett, 1997).
# Key:
# [1] = Compound was tested for plasma clearance in rat; type: ADME, organism-based; settings: read-out: Clp
# [2] = Oral bioavailability in rat; type: ADME, organism-based; settings: in vivo
# [3] = molecular target: T1, Gastrin/cholecystokinin type B receptor (Homo sapiens, UniProt P32239); assay: Tested for its selectivity against human Cholecystokinin type B receptor isolated from a human temporal cortex cDNA library and stably transfected into a HeLa cell line. (n=1); type: cell-based
# T1 sequence (P32239 whole entry): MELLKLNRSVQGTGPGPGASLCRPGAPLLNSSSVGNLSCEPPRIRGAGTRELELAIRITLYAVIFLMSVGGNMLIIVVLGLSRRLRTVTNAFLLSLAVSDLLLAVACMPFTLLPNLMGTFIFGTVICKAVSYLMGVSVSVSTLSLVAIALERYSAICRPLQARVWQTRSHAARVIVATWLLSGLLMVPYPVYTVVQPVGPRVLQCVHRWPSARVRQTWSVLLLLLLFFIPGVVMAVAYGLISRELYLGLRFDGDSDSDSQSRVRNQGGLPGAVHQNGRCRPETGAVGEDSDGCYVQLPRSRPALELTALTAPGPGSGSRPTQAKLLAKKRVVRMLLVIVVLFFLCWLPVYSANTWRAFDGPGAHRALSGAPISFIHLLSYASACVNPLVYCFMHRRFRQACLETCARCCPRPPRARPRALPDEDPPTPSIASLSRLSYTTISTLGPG
# [4] = molecular target: T2, Cholecystokinin receptor type A (Homo sapiens, UniProt P32238); assay: Tested for its selectivity against human Cholecystokinin type A receptor isolated from a human gallbladder cDNA library and stably transfected into a COSM6 cell line; (n=1); type: cell-based
# T2 sequence (P32238 whole entry): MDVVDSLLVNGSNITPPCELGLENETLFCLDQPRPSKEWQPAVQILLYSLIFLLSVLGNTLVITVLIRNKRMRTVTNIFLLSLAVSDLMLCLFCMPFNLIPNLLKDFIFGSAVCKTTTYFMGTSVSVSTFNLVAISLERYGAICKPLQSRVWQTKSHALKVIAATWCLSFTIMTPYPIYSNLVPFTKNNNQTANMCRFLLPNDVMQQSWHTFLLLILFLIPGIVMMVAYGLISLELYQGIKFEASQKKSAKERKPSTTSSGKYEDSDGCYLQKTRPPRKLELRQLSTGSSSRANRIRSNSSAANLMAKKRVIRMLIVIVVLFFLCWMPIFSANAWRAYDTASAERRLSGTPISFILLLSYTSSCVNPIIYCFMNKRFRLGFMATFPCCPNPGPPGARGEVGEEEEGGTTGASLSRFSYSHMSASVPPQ
# [5] = molecular target: T3, Cholecystokinin receptor type A (Cavia porcellus) (UniProt Q63931); assay: Tested for selectivity toward Cholecystokinin type A receptor by guinea -pig isolated ileum longitudinal muscle-myenteric plexus (GPI) assay; type: tissue-based
# T3 sequence (whole entry): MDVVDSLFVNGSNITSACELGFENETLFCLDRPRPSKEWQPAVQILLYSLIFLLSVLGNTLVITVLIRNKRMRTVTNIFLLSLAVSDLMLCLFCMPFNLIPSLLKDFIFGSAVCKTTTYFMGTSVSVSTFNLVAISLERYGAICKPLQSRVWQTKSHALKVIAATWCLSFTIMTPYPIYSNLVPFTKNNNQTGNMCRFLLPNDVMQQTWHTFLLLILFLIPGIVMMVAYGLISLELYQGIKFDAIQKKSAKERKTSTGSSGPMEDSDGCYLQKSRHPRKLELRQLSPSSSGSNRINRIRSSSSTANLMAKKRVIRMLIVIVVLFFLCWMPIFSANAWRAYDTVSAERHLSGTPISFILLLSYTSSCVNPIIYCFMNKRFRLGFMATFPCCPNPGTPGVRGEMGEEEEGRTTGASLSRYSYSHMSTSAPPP
# [6] = molecular target: T4, Gastrin/cholecystokinin type B receptor (Rattus norvegicus) (UniProt P30553); settings: Gastric mucosa
# T4 sequence (whole entry): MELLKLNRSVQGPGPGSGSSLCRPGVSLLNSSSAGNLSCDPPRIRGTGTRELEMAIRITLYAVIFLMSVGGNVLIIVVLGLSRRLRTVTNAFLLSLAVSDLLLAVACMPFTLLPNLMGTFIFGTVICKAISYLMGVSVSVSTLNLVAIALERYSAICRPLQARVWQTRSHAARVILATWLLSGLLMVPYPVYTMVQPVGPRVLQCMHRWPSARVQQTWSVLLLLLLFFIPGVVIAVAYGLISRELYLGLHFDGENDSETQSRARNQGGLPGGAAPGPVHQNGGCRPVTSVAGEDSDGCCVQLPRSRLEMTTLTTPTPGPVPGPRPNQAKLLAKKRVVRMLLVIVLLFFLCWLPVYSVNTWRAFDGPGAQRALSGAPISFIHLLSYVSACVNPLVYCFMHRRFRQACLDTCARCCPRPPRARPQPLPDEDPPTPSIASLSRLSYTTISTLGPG
# [7] = molecular target: T2, Cholecystokinin receptor type A; assay: Tested for its selectivity against human Cholecystokinin type A receptor isolated from a human gallbladder cDNA library and stably transfected into a COSM6 cell line (n=1); type: cell-based
# [8] = molecular target: T4, Gastrin/cholecystokinin type B receptor (Rattus norvegicus); assay: Tested for selectivity toward gastrin receptor by the ability to block pentagastrin stimulated acid secretion from isolated rat gastric mucosa (RGM); type: tissue-based
# Rattus norvegicus [9] = assay: Compound was tested for its ability to inhibit acid secretion in the pentagastrin stimulated gastric fistula rat model by intravenous dose of 1 mg/kg; type: functional; settings: Stomach
# Rattus norvegicus [10] = assay: Compound was tested for its ability to inhibit acid secretion in the pentagastrin stimulated gastric fistula rat model by intra gastric dose of 1 mg/kg; type: functional; settings: Stomach
# Rattus norvegicus [11] = assay: Tested for its ability to inhibit acid secretion in the pentagastrin stimulated gastric fistula rat model by intravenous dose of 0.1 mg/kg; type: functional; settings: Stomach
# Rattus norvegicus [12] = assay: Tested for its ability to inhibit acid secretion in the pentagastrin stimulated gastric fistula rat model by intra gastric dose of 1 mg/kg; type: functional; settings: Stomach
# Rattus norvegicus [13] = assay: Tested for its ability to inhibit acid secretion in the pentagastrin stimulated gastric fistula rat model by intravenous dose of 0.3 mg/kg; type: functional; settings: Stomach
# Rattus norvegicus [14] = assay: Tested for its ability to inhibit acid secretion in the pentagastrin stimulated gastric fistula rat model by intra gastric dose of 0.3 mg/kg; type: functional; settings: Stomach
Structure (SMILES),clearance [1] [mL/min/kg],bioavailability [2] [%],Ki [3] [nM],Ki [4] [nM],pKB [5],pKB [8],other results
O=C(Nc1ccc(F)cc1)NC1C(=O)N(CC(=O)N2CC3CCC(CC3)C2)c2ccccc2N(c2ccccc2F)C1=O (racemic),28,7,0.398,10,–,–,–
Cc1cccc(NC(=O)N[C@@H]2N=C(c3ccccc3)c3ccccc3N(C)C2=O)c1,–,–,–,–,7.7,–,pKB [6]: 7.6
O=C(Nc1ccc(F)cc1)NC1C(=O)N(CC(=O)N2CCCC2)c2ccccc2N(c2ccccc2F)C1=O (stereo unspecified),15,68,12.6,–,6.8,8.6,Ki [7]: 50.1 nM; inhibition in vivo at 1 mg/kg (Rattus norvegicus [9]): 86%; inhibition in vivo at 1 mg/kg (Rattus norvegicus [10]): 73%
O=C(Nc1cccc(C2N=NN=N2)c1)NC1C(=O)N(CC(=O)N2CCCC2)c2ccccc2N(c2ccccc2)C1=O (stereo unspecified),–,–,–,–,7.4,10.3,inhibition in vivo at 0.1 mg/kg (Rattus norvegicus [11]): 79%; inhibition in vivo at 1 mg/kg (Rattus norvegicus [12]): 45%
O=C(Nc1ccc(F)cc1)N[C@H]1C(=O)N(CC(=O)N2CCCC2)c2ccccc2N(C2CCCCC2)C1=O,36,23,2.51,79.4,–,–,inhibition in vivo at 0.3 mg/kg (Rattus norvegicus [13]): 60%; inhibition in vivo at 0.3 mg/kg (Rattus norvegicus [14]): 67%
O=C(Nc1ccccc1)NC1C(=O)N(CC(=O)N2CCCC2)c2ccccc2N(c2ccccc2)C1=O (stereo unspecified),–,–,–,–,7.3,8.5,–
O=C(Nc1cccc(C(=O)O)c1)NC1C(=O)N(CC(=O)N2CCCC2)c2ccccc2N(c2ccccc2)C1=O (stereo unspecified),–,–,–,–,5.7,8.6,–
O=C(Nc1ccc(F)cc1)N[C@H]1C(=O)N(CC(=O)N2CCCC2)c2ccccc2N(C2CCCCCC2)C1=O,–,10,1.58,79.4,–,–,–
